In patent US12533341B2, “Small molecule inhibitors of voltage-gated sodium channel 1.7 and methods of using same” (Duke University, priority 2019, dated 2026):

What was measured:
Type in all cases: cell-based
[1] = tested on: human dorsal root ganglion (DRG) neurons; assay: Patch-clamp of transient sodium currents in human DRG neurons
Protocol: Non-diseased human DRGs were obtained from donors through NDRI with permission of exemption from Duke IRB. Postmortem L3-L5 DRGs were dissected and delivered in ice-cold culture medium to the laboratory at Duke University within 24-72 hours of donor's death. Upon the delivery, DRGs were rapidly dissected from nerve roots and minced in a calcium-free HBSS (Gibco). DRGs were digested at 37° C. in a humidified 02 incubator for 120 min with collagenase Type II (Worthington, 285 units/mg, 12 mg/mL final concentration) and dispase II (Roche, 1 unit/mg, 20 mg/mL) in HBSS buffer. DRGs were mechanically dissociated using fire-polished pipettes, filtered through a […] nylon mesh and centrifuged (500×g for 5 min). The pellet was resuspended, plated on 0.5 mg/mL poly-D-lysine-coated glass coverslips, and cells were grown in Neurobasal medium supplemented with 10% FBS, 2% B-27 supplement, and 1% penicillin/streptomycin. Patch clamp recordings were conducted in small-diameter (<55 μm) DRG neurons (PMID: 26479925).
Whole-cell patch-clamp recordings were conducted at room temperature. Patch pipettes pulled from borosilicate capillaries (World Precision Instruments, Inc., Sarasota, FL) were used to record transient Na currents with an Axopatch-200B amplifier with a Digidata 1440A (Axon Instruments, Sunnyvale CA). The resistance was set to 3-4 MΩ when filled with pipette solution. […]

hNav1.5 = molecular target: T1, hNav1.5 (Homo sapiens, UniProt Q14524); assay: Whole-cell patch-clamp of sodium currents in Nav1.5-transfected HEK293 cells; settings: FIG. 4D, E
T1 construct: expressed in transfected cells; host or cells: HEK293 (ATCC), transient transfection with Lipofectamine 2000
Protocol: (§1) HEK-hNav1.7 stable cell line was purchased from SB Drug Discovery (Glasgow, United Kingdom). Human embryonic kidney 293 (HEK293) cells were obtained from the ATCC and maintained at the Duke cell culture facility. Cells were cultured in high-glucose (4.5 g/L) DMEM containing 10% (v/v) FBS (Gibco) and streptomycin/penicillin. For Nav1.7-expressing HEK293 cells, an additional antibiotic, blasticidin, was included. hNav1.5 transfection was performed by Lipofectamine 2000 at 70% confluence using 2 μg cDNA. The transfected cells were cultured in the same growth medium for 48 h before biochemical or electrophysiological studies.
Whole-cell patch-clamp recordings were conducted at room temperature. Patch pipettes pulled from borosilicate capillaries (World Precision Instruments, Inc., Sarasota, FL) were used to record transient Na currents with an Axopatch-200B amplifier with a Digidata 1440A (Axon Instruments, Sunnyvale CA). The resistance was set to 3-4 MΩ when filled with pipette solution. The pipette solution contained (in mmol/L): CsCl 130, NaCl 9, MgCl2 1, EGTA 10, HEPES 10, adjusted to pH 7.3 with CsOH. The external solution for recording transient Na^+ currents contained (in mmol/L): NaCl 131, TEACl 10, CsCl 10, CaCl2) 1, MgCl2 2, CdCl2 0.3, 4-aminopyridine 3, HEPES 10, glucose 10, adjusted to pH 7.4 with NaOH. The recording chamber (300 μL) was continuously superfused at 3-4 mL/min. […]

human Nav1.7 = human Nav1.7 (Homo sapiens, UniProt Q15858); assay: Whole-cell patch-clamp of sodium currents in Nav1.7-expressing HEK293 cells
Protocol: as §1
Whole-cell patch-clamp recordings were conducted at room temperature. Patch pipettes pulled from borosilicate capillaries (World Precision Instruments, Inc., Sarasota, FL) were used to record transient Na currents with an Axopatch-200B amplifier with a Digidata 1440A (Axon Instruments, Sunnyvale CA). The resistance was set to 3-4 MΩ when filled with pipette solution. The pipette solution contained (in mmol/L): CsCl 130, NaCl 9, MgCl2 1, EGTA 10, HEPES 10, adjusted to pH 7.3 with CsOH. The external solution for recording transient Na^+ currents contained (in mmol/L): NaCl 131, TEACl 10, CsCl 10, CaCl2) 1, MgCl2 2, CdCl2 0.3, 4-aminopyridine 3, HEPES 10, glucose 10, adjusted to pH 7.4 with NaOH. The recording chamber (300 μL) was continuously superfused at 3-4 mL/min. Series resistance was compensated (>80%) and leak subtraction was performed. Data were low-pass-filtered at 2 kHz and sampled at 10 kHz. pClamp10 (Axon Instruments) software was used during experiments and analysis. In voltage-clamp experiments, transient Na+ currents were evoked by a test pulse to 0 mV from the holding potential (−70 mV).
The effects of the 9 selected compounds on Nav1.7 channel activities were tested using patch-clamp recordings on human Nav1.7 expressing HEK293 cells (FIG. 3, FIG. 4). In each cell, sodium currents were recorded for 13 min, and candidate inhibitors (10 μM) were incubated for 2 min after 2 min baseline recording (FIG. 3). Compound was applied at the beginning of the second minute for two minutes (denoted as a horizontal line above the X-axis). Sodium currents were recorded at equal intervals (every 20 seconds, 40 recordings per compound per cell). Data was analyzed with a two-way repeated measures ANOVA, followed by a post-hoc test of the last timepoint Bonferroni-corrected for 9 pairwise comparisons (each compound was compared with control). […] Sample size n=3 to 7 cells per group.
For FIG. 4C, sample size was n=5 to 7 cells per group. Compound was applied at the beginning of the second minute for two minutes (denoted as a horizontal line above the X-axis). Sodium currents were recorded every 20 seconds.

human Nav1.7, sequence (Q15858 whole entry): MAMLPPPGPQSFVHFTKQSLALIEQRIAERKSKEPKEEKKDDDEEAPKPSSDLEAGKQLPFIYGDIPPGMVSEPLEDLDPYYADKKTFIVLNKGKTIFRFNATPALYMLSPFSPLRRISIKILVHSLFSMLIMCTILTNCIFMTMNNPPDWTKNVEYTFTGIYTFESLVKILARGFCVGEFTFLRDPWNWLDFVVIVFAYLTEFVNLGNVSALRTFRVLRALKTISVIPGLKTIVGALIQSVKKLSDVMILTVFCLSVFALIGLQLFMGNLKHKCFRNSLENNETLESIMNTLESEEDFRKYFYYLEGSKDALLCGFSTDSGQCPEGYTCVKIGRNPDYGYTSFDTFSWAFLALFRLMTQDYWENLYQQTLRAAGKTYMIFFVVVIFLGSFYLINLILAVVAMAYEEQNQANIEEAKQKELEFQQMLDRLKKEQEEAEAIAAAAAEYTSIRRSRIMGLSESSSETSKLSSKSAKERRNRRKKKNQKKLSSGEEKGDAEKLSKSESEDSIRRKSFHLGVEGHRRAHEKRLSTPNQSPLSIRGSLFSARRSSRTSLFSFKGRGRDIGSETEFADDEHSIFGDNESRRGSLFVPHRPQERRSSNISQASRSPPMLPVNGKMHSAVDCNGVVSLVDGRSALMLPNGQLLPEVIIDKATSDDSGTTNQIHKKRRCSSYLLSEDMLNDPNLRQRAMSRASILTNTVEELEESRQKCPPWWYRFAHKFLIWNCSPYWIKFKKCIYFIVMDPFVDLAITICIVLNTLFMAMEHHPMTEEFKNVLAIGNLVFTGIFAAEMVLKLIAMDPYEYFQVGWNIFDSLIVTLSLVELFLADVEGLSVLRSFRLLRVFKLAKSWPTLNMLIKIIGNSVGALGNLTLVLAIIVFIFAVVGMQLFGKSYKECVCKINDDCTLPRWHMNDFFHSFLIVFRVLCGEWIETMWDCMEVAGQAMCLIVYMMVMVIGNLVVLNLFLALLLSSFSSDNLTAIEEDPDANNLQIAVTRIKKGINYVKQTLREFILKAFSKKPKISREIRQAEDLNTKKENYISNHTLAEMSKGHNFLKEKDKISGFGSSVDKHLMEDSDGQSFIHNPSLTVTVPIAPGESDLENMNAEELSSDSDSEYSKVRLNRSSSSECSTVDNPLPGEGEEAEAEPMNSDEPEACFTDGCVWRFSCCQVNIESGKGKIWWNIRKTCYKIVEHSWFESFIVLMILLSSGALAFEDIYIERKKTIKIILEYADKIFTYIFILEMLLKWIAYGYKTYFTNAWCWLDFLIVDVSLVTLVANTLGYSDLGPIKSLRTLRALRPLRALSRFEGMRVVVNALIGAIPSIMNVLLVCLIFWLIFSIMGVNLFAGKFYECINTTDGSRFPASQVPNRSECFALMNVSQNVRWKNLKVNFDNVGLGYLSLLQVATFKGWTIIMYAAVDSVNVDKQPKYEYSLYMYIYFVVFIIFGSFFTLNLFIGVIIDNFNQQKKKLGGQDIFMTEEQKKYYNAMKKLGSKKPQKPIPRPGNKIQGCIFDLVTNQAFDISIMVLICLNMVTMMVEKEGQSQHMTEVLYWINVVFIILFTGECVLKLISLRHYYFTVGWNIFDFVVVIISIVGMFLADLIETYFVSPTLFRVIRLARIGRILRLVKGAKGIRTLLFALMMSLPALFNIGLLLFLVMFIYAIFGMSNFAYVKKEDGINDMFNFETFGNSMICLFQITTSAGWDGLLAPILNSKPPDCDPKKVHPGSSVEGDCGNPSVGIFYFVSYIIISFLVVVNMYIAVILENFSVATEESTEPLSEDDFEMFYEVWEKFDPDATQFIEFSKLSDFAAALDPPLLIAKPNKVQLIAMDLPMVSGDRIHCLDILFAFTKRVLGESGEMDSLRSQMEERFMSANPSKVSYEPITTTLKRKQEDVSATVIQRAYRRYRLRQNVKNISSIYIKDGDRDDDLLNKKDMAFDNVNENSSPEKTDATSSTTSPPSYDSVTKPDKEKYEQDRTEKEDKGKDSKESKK
T1 sequence (Q14524 whole entry): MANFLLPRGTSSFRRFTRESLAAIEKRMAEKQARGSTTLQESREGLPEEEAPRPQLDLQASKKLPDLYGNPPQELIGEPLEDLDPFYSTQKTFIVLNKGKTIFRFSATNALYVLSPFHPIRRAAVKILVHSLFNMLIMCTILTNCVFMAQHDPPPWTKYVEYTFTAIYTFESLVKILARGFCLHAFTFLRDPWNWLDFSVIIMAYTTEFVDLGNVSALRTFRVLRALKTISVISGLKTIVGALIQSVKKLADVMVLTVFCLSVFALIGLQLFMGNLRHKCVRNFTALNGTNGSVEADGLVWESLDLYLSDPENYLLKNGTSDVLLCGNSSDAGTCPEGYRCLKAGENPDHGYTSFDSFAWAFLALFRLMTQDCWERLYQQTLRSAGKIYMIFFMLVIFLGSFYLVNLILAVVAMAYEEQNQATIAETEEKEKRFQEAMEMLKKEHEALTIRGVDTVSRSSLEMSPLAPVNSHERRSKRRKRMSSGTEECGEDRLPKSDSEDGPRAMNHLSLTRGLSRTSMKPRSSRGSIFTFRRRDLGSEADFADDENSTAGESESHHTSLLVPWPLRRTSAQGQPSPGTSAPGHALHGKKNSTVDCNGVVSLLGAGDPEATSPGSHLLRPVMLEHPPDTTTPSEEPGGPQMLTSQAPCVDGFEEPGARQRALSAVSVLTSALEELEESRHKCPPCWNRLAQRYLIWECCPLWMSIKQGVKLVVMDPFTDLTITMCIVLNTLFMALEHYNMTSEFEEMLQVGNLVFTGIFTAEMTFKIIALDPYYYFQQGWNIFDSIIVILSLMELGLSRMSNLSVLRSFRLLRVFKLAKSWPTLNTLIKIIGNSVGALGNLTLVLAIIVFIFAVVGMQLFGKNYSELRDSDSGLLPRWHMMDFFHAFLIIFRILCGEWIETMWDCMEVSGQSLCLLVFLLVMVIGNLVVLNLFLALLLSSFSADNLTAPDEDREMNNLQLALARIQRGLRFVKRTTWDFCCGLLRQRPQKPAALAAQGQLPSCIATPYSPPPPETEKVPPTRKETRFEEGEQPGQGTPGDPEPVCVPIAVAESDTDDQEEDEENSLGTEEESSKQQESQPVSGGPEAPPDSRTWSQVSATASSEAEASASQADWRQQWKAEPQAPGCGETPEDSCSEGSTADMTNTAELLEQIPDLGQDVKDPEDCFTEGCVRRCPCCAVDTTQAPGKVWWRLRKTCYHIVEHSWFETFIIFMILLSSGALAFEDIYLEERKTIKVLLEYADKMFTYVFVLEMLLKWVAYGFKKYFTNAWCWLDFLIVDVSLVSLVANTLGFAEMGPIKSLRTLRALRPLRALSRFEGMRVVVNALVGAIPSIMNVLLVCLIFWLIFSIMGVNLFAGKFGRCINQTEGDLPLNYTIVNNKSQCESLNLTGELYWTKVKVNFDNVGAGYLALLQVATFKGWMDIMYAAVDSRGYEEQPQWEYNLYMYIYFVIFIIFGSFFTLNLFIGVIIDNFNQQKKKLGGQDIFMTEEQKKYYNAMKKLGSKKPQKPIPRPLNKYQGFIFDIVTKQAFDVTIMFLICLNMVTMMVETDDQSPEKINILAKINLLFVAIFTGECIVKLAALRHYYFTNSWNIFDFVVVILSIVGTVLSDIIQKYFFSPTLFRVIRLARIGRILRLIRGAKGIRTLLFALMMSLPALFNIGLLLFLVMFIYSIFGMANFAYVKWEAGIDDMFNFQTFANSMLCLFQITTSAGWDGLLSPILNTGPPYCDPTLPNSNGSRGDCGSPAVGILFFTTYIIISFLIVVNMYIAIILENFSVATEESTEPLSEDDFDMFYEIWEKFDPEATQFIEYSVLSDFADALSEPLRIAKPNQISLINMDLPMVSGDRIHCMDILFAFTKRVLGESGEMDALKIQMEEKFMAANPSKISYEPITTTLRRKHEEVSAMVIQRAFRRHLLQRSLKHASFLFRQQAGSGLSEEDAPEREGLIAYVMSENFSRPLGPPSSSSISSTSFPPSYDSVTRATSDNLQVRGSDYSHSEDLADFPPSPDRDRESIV

## O=C(CC(c1cccc(Oc2ccccc2)c1)c1cn(Cc2ccccc2)c2ccccc12)NCCN1CCCC1 (centres unmarked) [Compound 9, 3-(1-benzyl-1H-indol-3-yl)-3-(3-phenoxyphenyl)-N-(2-(pyrrolidin-1-yl)ethyl)propanamide]
[1]
  mean relative current at the last measurement: 73 % of the baseline
[1]; 10 uM
  relative current difference (inhibition of peak INaT): 0.22
hNav1.5
  effect on sodium currents in Nav1.5-expressing HEK293 cells: no effects
hNav1.5; listed as DA-0218
  effect on sodium currents in Nav1.5-expressing HEK293 cells: no effect
Human Nav1.7; 0.01 μM, dose-response (FIG. 4), not significant
  difference in relative current from the control group at the last measurement: 0.13
Human Nav1.7; 0.1 μM, dose-response (FIG. 4)
  difference in relative current from the control group at the last measurement: 0.27
Human Nav1.7; 1 μM
  inhibition of sodium currents vs. control: 47%
Human Nav1.7; 1 μM, dose-response (FIG. 4)
  difference in relative current from the control group at the last measurement: 0.47
Human Nav1.7; 10 μM, dose-response (FIG. 4)
  difference in relative current from the control group at the last measurement: 0.76
Human Nav1.7; 10 μM, screen of compounds 1-9 (FIG. 3)
  difference in relative current from the control group at the last measurement: 0.71
Human Nav1.7; Nav1.7-expressing HEK293 cells, dose-response, read-out: 50% inhibition concentration (IC50)
  IC50: 0.74 µM
